In the supplement of paper PMC10307832:

Experiments:
Assay in all cases: relative viability (nuclei count vs DMSO), 5 days (fraction); higher = more cells survive
[1] = compound: C1/C(=C\C2=CC=CS2)/C(=O)/C(=C/C3=CC=CS3)/C1 + CC(C)C[C@H](NC(=O)[C@H](Cc1ccccc1)NC(=O)c1cnccn1)B(O)O [Bortezomib] (partner 0.002 µM)
In short: (§1)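 Lung cancer cell lines in 1536-well plates were dosed by pin tool the day after seeding, either with one drug alone or with a fixed anchor-drug dose plus five library-drug doses (not always all listed) in √10 steps. After 5 days, cells were fixed and their nuclei stained in one step (final 0.05% Triton X-100, 1% formaldehyde, 1 ug/ml Hoechst), then counted on 4× images. Relative viability is the nuclei count in treated wells divided by that in vehicle wells. Values are medians of duplicate plates.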

[2] = compound: C1/C(=C\C2=CC=CS2)/C(=O)/C(=C/C3=CC=CS3)/C1 + CCNC(=O)c1noc(-c2cc(C(C)C)c(O)cc2O)c1-c1ccc(CN2CCOCC2)cc1 [Luminespib] (partner 0.01 µM)
In short: as §1

[3] = compound: C1/C(=C\C2=CC=CS2)/C(=O)/C(=C/C3=CC=CS3)/C1 + CS(=O)(=O)N1CCN(Cc2cc3nc(-c4cccc5[nH]ncc45)nc(N4CCOCC4)c3s2)CC1 [Pictilisib] (partner 1 µM)
In short: as §1

[4] = compound: C[C@]12O[C@H](C[C@]1(O)CO)n1c3ccccc3c3c4c(c5c6ccccc6n2c5c31)CNC4=O [Lestaurtinib] + CC(=O)Nc1cccc(-n2c(=O)n(C3CC3)c(=O)c3c(Nc4ccc(I)cc4F)n(C)c(=O)c(C)c32)c1 [Trametinib] (partner 0.02 µM)
In short: as §1

EKVX
relative viability ([1]; first compound 0.2 µM): 1.11 | relative viability ([1]; first compound 0.6325 µM): 1.02 | relative viability ([1]; first compound 2 µM): 1.12 | relative viability ([1]; first compound 6.325 µM): 0.933 | relative viability ([1]; first compound 20 µM): 1.1 | relative viability ([2]; first compound 0.2 µM): 0.914 | relative viability ([2]; first compound 0.6325 µM): 0.83 | relative viability ([2]; first compound 2 µM): 0.904 | relative viability ([2]; first compound 6.325 µM): 0.678 | relative viability ([2]; first compound 20 µM): 0.842 | relative viability ([3]; first compound 0.2 µM): 0.44 | relative viability ([3]; first compound 0.6325 µM): 0.431 | relative viability ([3]; first compound 2 µM): 0.415 | relative viability ([3]; first compound 6.325 µM): 0.34 | relative viability ([3]; first compound 20 µM): 0.467 | relative viability ([4]; first compound 0.005 µM): 0.507 | relative viability ([4]; first compound 0.05 µM): 0.362 | relative viability ([4]; first compound 0.1581 µM): 0.372 | relative viability ([4]; first compound 0.5 µM): 0.356

NCI-H520
relative viability ([1]; first compound 0.2 µM): 0.575 | relative viability ([1]; first compound 0.6325 µM): 0.763 | relative viability ([1]; first compound 2 µM): 0.601 | relative viability ([1]; first compound 6.325 µM): 0.401 | relative viability ([1]; first compound 20 µM): 0.533 | relative viability ([2]; first compound 0.2 µM): 0.231 | relative viability ([2]; first compound 0.6325 µM): 0.218 | relative viability ([2]; first compound 2 µM): 0.212 | relative viability ([2]; first compound 6.325 µM): 0.209 | relative viability ([2]; first compound 20 µM): 0.242 | relative viability ([3]; first compound 0.2 µM): 0.284 | relative viability ([3]; first compound 0.6325 µM): 0.369 | relative viability ([3]; first compound 2 µM): 0.303 | relative viability ([3]; first compound 6.325 µM): 0.277 | relative viability ([3]; first compound 20 µM): 0.311 | relative viability ([4]; first compound 0.005 µM): 0.715 | relative viability ([4]; first compound 0.01581 µM): 0.676 | relative viability ([4]; first compound 0.05 µM): 0.534 | relative viability ([4]; first compound 0.1581 µM): 0.42 | relative viability ([4]; first compound 0.5 µM): 0.211

LCLC-97TM1
relative viability ([1]; first compound 0.2 µM): 0.777 | relative viability ([1]; first compound 0.6325 µM): 0.501 | relative viability ([1]; first compound 2 µM): 0.737 | relative viability ([1]; first compound 6.325 µM): 0.43 | relative viability ([1]; first compound 20 µM): 0.565 | relative viability ([2]; first compound 0.2 µM): 0.734 | relative viability ([2]; first compound 0.6325 µM): 0.813 | relative viability ([2]; first compound 2 µM): 0.754 | relative viability ([2]; first compound 6.325 µM): 0.782 | relative viability ([2]; first compound 20 µM): 0.803 | relative viability ([3]; first compound 0.2 µM): 0.209 | relative viability ([3]; first compound 0.6325 µM): 0.28 | relative viability ([3]; first compound 2 µM): 0.198 | relative viability ([3]; first compound 6.325 µM): 0.235 | relative viability ([3]; first compound 20 µM): 0.159 | relative viability ([4]; first compound 0.01581 µM): 0.196 | relative viability ([4]; first compound 0.05 µM): 0.199 | relative viability ([4]; first compound 0.1581 µM): 0.157 | relative viability ([4]; first compound 0.5 µM): 0.226

NCI-H3122
relative viability ([1]; first compound 0.2 µM): 1.04 | relative viability ([1]; first compound 0.6325 µM): 1.02 | relative viability ([1]; first compound 2 µM): 0.997 | relative viability ([1]; first compound 6.325 µM): 1.03 | relative viability ([1]; first compound 20 µM): 0.932 | relative viability ([2]; first compound 0.2 µM): 0.112 | relative viability ([2]; first compound 0.6325 µM): 0.0975 | relative viability ([2]; first compound 2 µM): 0.0926 | relative viability ([2]; first compound 6.325 µM): 0.0901 | relative viability ([2]; first compound 20 µM): 0.086 | relative viability ([3]; first compound 0.2 µM): 0.681 | relative viability ([3]; first compound 0.6325 µM): 0.579 | relative viability ([3]; first compound 2 µM): 0.718 | relative viability ([3]; first compound 6.325 µM): 0.466 | relative viability ([3]; first compound 20 µM): 0.642 | relative viability ([4]; first compound 0.005 µM): 0.298 | relative viability ([4]; first compound 0.01581 µM): 0.228 | relative viability ([4]; first compound 0.05 µM): 0.228 | relative viability ([4]; first compound 0.1581 µM): 0.223 | relative viability ([4]; first compound 0.5 µM): 0.335

PC-14
relative viability ([1]; first compound 0.2 µM): 0.904 | relative viability ([1]; first compound 0.6325 µM): 0.763 | relative viability ([1]; first compound 2 µM): 0.837 | relative viability ([1]; first compound 6.325 µM): 0.742 | relative viability ([1]; first compound 20 µM): 0.98 | relative viability ([2]; first compound 0.2 µM): 0.139 | relative viability ([2]; first compound 0.6325 µM): 0.145 | relative viability ([2]; first compound 2 µM): 0.179 | relative viability ([2]; first compound 6.325 µM): 0.187 | relative viability ([2]; first compound 20 µM): 0.15 | relative viability ([3]; first compound 0.2 µM): 0.815 | relative viability ([3]; first compound 0.6325 µM): 0.654 | relative viability ([3]; first compound 2 µM): 0.69 | relative viability ([3]; first compound 6.325 µM): 0.755 | relative viability ([3]; first compound 20 µM): 0.737 | relative viability ([4]; first compound 0.005 µM): 0.793 | relative viability ([4]; first compound 0.01581 µM): 0.787 | relative viability ([4]; first compound 0.05 µM): 0.701 | relative viability ([4]; first compound 0.1581 µM): 0.548 | relative viability ([4]; first compound 0.5 µM): 0.0827

EPLC-272H
relative viability ([1]; first compound 0.2 µM): 0.957 | relative viability ([1]; first compound 0.6325 µM): 0.903 | relative viability ([1]; first compound 2 µM): 0.93 | relative viability ([1]; first compound 6.325 µM): 1.01 | relative viability ([1]; first compound 20 µM): 0.839 | relative viability ([2]; first compound 0.2 µM): 0.53 | relative viability ([2]; first compound 0.6325 µM): 0.326 | relative viability ([2]; first compound 2 µM): 0.267 | relative viability ([2]; first compound 6.325 µM): 0.513 | relative viability ([2]; first compound 20 µM): 0.561 | relative viability ([3]; first compound 0.2 µM): 0.33 | relative viability ([3]; first compound 0.6325 µM): 0.315 | relative viability ([3]; first compound 2 µM): 0.396 | relative viability ([3]; first compound 6.325 µM): 0.39 | relative viability ([3]; first compound 20 µM): 0.306 | relative viability ([4]; first compound 0.005 µM): 0.271 | relative viability ([4]; first compound 0.01581 µM): 0.23 | relative viability ([4]; first compound 0.05 µM): 0.218 | relative viability ([4]; first compound 0.1581 µM): 0.224 | relative viability ([4]; first compound 0.5 µM): 0.286

A-427
relative viability ([1]; first compound 0.2 µM): 1.07 | relative viability ([1]; first compound 0.6325 µM): 1.08 | relative viability ([1]; first compound 2 µM): 0.961 | relative viability ([1]; first compound 6.325 µM): 0.993 | relative viability ([1]; first compound 20 µM): 0.981 | relative viability ([2]; first compound 0.2 µM): 1.01 | relative viability ([2]; first compound 0.6325 µM): 0.905 | relative viability ([2]; first compound 2 µM): 0.939 | relative viability ([2]; first compound 6.325 µM): 0.876 | relative viability ([2]; first compound 20 µM): 0.977 | relative viability ([3]; first compound 0.2 µM): 0.761 | relative viability ([3]; first compound 0.6325 µM): 0.82 | relative viability ([3]; first compound 2 µM): 0.923 | relative viability ([3]; first compound 6.325 µM): 0.706 | relative viability ([3]; first compound 20 µM): 0.733 | relative viability ([4]; first compound 0.005 µM): 0.783 | relative viability ([4]; first compound 0.01581 µM): 0.807 | relative viability ([4]; first compound 0.05 µM): 0.729 | relative viability ([4]; first compound 0.1581 µM): 0.344 | relative viability ([4]; first compound 0.5 µM): 0.203
